# Measured values: article PMC7767506, “Synthesis and Characterization of Store-Operated Calcium Entry Inhibitors Active in the Submicromolar Range” (International Journal of Molecular Sciences, 2020)
# “Also recorded” adds a separate entry of the source.
# What was measured:
# [1] = system: SOCE in MDA-MB231 (breast cancer) cells; assay: Thapsigargin-induced SOCE in MDA-MB231 cells, Indo-1; format: cell-based, human
# Method: We also tested P11 on the DG75 (Burkitt B lymphoma), U937 (monocytic lymphoma), and MDA-MB231 (breast carcinoma) cell lines. […] Thus, in several cell lines, full inhibition of the SOCE was already obtained at a concentration of 100 nM (Figure 3B).
# [Ca^2+]cyt was recorded by a fluorimetric ratio technique as previously described. Leukocytes were spun and resuspended at a density of 10^6 cells/mL in Hepes buffered saline (HBS; 135 mM NaCl, 5.9 mM KCl, 1.2 mM MgCl2, 11.6 mM Hepes, 11.5 mM glucose adjusted to pH 7.3 with NaOH). Due to the presence of 0.002% Ca^2+ in the NaCl, this HBS medium contained 0.1 mM of Ca^2+. Then, cells were incubated in the dark with 4 μM Indo-1-AM for one hour at room temperature under slow agitation. […] Ultraviolet light of 360 nm was used for excitation of Indo-1, and emissions at 405 and 480 nm were recorded. […] The maximum Indo-1 fluorescence (Rmax) was obtained by adding 1 µM ionomycin to the cell suspension in the presence of 10 mM extracellular CaCl2. Minimum fluorescence was determined following the depletion of external Ca^2+ with 5 mM EGTA.
# To visualize the SOCE, cells were placed into the quartz cuvette and 0.5 EGTA was added just before the beginning of the recordings. […] In the dose-response experiments, different concentrations of 2-APB and its analogs were added 30 s prior to Ca^2+ readdition.
# IP3R1 = target: T1, IP3R1 (Mus musculus, UniProt P11881); assay: IP3-induced Ca2+ release (IICR) in permeabilized L15 fibroblasts overexpressing IP3R1; format: cell-based
# T1 construct: expressed in transfected cells; host or cells: L15 fibroblast cell line (gift of Katsuhiko Mikoshiba), saponin-permeabilized
# Method: Measurements of SERCA-mediated ^45Ca^2+ store loading and IP3-dependent release from the ER Ca^2+ store were performed on permeabilized cells in unidirectional conditions. As this approach required the use of cells forming strongly adherent monolayers, we used L15 fibroblasts stably overexpressing IP3R1, similarly to our previous work.
# The L15 fibroblasts stably overexpressing IP3R1 were seeded in gelatin-coated 12-well plates (Greiner, Frickenhausen, Germany) at a density of 60,000 cells per well. Unidirectional ^45Ca^2+ flux experiments on confluent cell monolayers were performed at 30 °C after membrane permeabilization with saponin (40 µg/mL), exactly as previously described. After permeabilization, the non-mitochondrial Ca^2+ stores were loaded for 45 min in 120 mM KCl, 30 mM imidazole–HCl (pH 6.8), 5 mM MgCl2, 5 mM ATP, 0.44 mM EGTA, 10 mM NaN3, and 150 nM free ^45Ca^2+ (28 µCi mL^−1). Subsequently, efflux was initiated by incubation in efflux medium (120 mM KCl, 1 mM EGTA, 10 µM TG and 30 mM imidazole–HCl pH 6.8). The latter medium was replaced every two minutes for 18 minutes. The exact amount of Ca^2+ at each time point is calculated by summing in retrograde order the amount of radioactivity remaining in the cells at the end of the efflux and the radioactivity collected during the successive time intervals. This allows to calculate the steady-state content of the ER Ca^2+ stores (indicative for the SERCA activity, after subtraction of the loading achieved in the presence of 2 µM TG) the basal leak rate of Ca^2+ out of the stores and the IP3-induced Ca^2+ release after addition of IP3 (0.7 µM). These various parameters were measured both in control conditions or in the presence of various 2-APB analogs as indicated. To assess the effect of the 2-APB analogs on the SERCA-mediated loading of the ER Ca^2+ stores, the analogs were added during the ^45Ca^2+-loading phase as described previously. […]
# Jurkat cells = assay: TUNEL apoptosis assay in Jurkat cells; format: cell-based, human
# Method: To verify the mechanism of cell death induced by compound P11, we next performed caspase-3 activity assays using the fluorogenic Ac-DEVD-AFC substrate as well as a TUNEL assay.
# We measured the apoptosis levels in Jurkat cells by the “in situ cell death detection” kit (Roche Applied Science, Meylan, France). Briefly, 50,000 cells/well were seeded in a 96-well plate and treated with or without 10 µg/mL PHA and 0 to 1 µM P11 for 6, 12, or 24 h. Cells were spun, fixed, and permeabilized according to the manufacturer’s instructions and the terminal transferase dUTP Nick end labelling reaction was performed in the dark during 60 min at 37 °C. For visualization of the results, an epifluorescence microscope (Axioskop, Karl Zeiss, Le Pecq, France) was used at an excitation wavelength of 488 nm, and an emission wavelength of 545 nm. Cells were also loaded with 4’,6’ –diamidino-2-phenylindole (DAPI) to visualize the nuclei. Total cell number (>200) and TUNEL-positive cells were counted in several fields (>5) and the ratio of apoptotic cells was calculated. This experiment was repeated three times.
# T1 sequence (P11881 whole entry): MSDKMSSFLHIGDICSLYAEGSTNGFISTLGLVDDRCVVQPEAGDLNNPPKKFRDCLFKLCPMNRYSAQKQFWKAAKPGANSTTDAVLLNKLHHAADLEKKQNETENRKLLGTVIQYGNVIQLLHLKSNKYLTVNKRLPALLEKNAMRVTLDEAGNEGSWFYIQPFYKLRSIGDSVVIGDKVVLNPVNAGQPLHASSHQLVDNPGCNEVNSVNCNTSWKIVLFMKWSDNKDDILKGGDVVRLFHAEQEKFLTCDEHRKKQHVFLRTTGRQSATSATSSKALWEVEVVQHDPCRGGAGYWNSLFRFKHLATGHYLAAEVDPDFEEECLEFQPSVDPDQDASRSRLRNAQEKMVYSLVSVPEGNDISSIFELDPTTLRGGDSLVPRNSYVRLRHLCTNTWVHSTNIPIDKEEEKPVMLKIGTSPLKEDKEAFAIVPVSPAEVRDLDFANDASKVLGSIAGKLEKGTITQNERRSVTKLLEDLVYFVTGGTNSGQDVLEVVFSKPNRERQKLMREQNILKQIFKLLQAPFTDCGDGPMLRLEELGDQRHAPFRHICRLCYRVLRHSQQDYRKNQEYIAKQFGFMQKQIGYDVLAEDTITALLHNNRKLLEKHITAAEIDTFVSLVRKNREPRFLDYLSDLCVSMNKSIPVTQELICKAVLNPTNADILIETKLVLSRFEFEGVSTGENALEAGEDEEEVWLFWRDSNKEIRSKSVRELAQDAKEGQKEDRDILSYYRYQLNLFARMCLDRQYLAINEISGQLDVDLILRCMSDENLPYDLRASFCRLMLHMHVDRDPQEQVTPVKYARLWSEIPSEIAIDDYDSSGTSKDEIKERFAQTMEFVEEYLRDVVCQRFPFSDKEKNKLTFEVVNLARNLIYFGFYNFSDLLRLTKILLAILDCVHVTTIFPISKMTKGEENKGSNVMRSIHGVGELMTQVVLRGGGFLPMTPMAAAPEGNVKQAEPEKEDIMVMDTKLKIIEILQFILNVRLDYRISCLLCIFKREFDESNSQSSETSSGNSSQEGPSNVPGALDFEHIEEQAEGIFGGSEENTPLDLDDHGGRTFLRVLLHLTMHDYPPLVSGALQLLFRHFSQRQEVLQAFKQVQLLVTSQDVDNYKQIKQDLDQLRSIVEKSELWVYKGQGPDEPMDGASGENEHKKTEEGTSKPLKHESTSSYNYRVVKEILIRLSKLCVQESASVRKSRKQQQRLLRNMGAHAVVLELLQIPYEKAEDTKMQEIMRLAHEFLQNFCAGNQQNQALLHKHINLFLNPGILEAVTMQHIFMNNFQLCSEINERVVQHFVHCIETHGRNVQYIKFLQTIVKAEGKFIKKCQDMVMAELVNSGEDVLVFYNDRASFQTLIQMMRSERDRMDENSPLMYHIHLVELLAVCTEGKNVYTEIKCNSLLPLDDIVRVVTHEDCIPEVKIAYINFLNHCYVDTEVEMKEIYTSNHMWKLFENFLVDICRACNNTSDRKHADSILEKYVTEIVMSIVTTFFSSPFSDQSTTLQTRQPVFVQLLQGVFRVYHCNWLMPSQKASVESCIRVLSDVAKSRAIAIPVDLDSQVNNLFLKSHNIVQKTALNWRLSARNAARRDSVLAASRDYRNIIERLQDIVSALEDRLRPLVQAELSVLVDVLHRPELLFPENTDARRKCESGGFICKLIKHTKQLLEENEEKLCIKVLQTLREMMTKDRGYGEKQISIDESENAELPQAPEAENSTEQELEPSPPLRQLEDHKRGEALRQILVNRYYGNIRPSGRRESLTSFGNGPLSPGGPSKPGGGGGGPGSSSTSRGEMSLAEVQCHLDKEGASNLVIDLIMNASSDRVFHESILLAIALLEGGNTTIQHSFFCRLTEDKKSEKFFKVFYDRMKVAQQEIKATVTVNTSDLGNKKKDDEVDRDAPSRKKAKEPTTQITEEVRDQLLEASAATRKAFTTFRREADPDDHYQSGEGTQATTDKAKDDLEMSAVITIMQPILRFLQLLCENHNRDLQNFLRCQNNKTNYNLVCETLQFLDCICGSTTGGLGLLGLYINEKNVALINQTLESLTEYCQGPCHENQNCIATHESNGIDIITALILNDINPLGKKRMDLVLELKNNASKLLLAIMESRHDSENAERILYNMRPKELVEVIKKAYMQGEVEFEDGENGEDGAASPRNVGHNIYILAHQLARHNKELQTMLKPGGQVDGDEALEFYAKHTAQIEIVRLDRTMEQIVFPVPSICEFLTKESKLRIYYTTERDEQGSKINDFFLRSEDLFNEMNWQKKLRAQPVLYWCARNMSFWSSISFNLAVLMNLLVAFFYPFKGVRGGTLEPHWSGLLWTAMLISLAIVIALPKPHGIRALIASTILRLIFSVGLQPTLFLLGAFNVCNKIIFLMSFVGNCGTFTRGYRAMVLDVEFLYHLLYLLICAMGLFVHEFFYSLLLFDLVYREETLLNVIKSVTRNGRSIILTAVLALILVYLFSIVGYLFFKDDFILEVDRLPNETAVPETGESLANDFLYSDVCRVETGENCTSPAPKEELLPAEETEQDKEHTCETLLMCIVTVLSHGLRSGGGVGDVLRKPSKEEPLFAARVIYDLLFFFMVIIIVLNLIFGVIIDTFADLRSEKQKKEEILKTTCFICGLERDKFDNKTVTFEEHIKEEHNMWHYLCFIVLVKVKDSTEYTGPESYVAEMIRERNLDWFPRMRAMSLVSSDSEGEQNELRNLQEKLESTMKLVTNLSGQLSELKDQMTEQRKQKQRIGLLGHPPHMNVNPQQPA
substance,measurement,setting,value
2-(dibiphenyl-4-ylboryloxy)ethanamine [P11],Ki,[1],50 ± 5 nM
same,change of IP3R activity,IP3R1; 100 µM,−29 ± 9%
same,effect on IP3R,IP3R1; concentrations < 1 µM,devoid of any inhibitory activity; also recorded: without any effect
same,apoptotic cells (TUNEL),"Jurkat cells; 1 µM P11 alone, 24 h",~ 5%
same,cells with fragmented DNA (TUNEL),"Jurkat cells; 10 µg/mL PHA + 1 µM P11, 24 h",17.9 ± 1.2%
same,fold increase of cells with fragmented DNA,"Jurkat cells; PHA + P11 at concentrations > 10 nM, vs resting conditions",≈ 4.5 fold
same,fold increase of apoptotic cells,"Jurkat cells; costimulation PHA + P11 > 10 nM, vs PHA alone (Figure 7 legend)",≈ 1.5 fold
